Assay results as given in the NIST ThermoML archive (doi:10.1016/j.jct.2014.01.006).
“And” between values parts separate entries of the source, which are not always exact repeats. Equal values may be shown once.

Assay: molar heat capacity at saturation pressure

c1ccc(-c2cccc3ccccc23)cc1 [1-phenylnaphthalene]
Conditions	molar heat capacity
57.98 K, Crystal, Vacuum adiabatic calorimetry	61.8 J/K/mol
60 K, Crystal, Vacuum adiabatic calorimetry	63.39 J/K/mol
61.92 K, Crystal, Vacuum adiabatic calorimetry	65.08 J/K/mol
63.69 K, Crystal, Vacuum adiabatic calorimetry	66.18 J/K/mol
66.86 K, Crystal, Vacuum adiabatic calorimetry	68.59 J/K/mol
70 K, Crystal, Vacuum adiabatic calorimetry	70.93 J/K/mol
70.04 K, Crystal, Vacuum adiabatic calorimetry	71 J/K/mol
71.83 K, Crystal, Vacuum adiabatic calorimetry	72.22 J/K/mol
76.82 K, Crystal, Vacuum adiabatic calorimetry	75.66 J/K/mol
77.08 K, Crystal, Vacuum adiabatic calorimetry	75.91 J/K/mol
80 K, Crystal, Vacuum adiabatic calorimetry	77.87 J/K/mol
81.77 K, Crystal, Vacuum adiabatic calorimetry	79.16 J/K/mol
84.85 K, Crystal, Vacuum adiabatic calorimetry	81.07 J/K/mol
86.7 K, Crystal, Vacuum adiabatic calorimetry	82.3 J/K/mol
90 K, Crystal, Vacuum adiabatic calorimetry	84.45 J/K/mol
92.7 K, Glass, Vacuum adiabatic calorimetry	86.97 J/K/mol
93.5 K, Crystal, Vacuum adiabatic calorimetry	86.69 J/K/mol
100 K, Crystal, Vacuum adiabatic calorimetry	90.82 J/K/mol
102.16 K, Glass, Vacuum adiabatic calorimetry	93.03 J/K/mol
102.86 K, Crystal, Vacuum adiabatic calorimetry	92.63 J/K/mol
111.98 K, Glass, Vacuum adiabatic calorimetry	99.33 J/K/mol
112.57 K, Crystal, Vacuum adiabatic calorimetry	98.86 J/K/mol
120 K, Crystal, Vacuum adiabatic calorimetry	103.63 J/K/mol
122.36 K, Crystal, Vacuum adiabatic calorimetry	105.15 J/K/mol
122.48 K, Glass, Vacuum adiabatic calorimetry	106.16 J/K/mol
132.22 K, Crystal, Vacuum adiabatic calorimetry	111.61 J/K/mol
133.24 K, Glass, Vacuum adiabatic calorimetry	113.28 J/K/mol
140 K, Crystal, Vacuum adiabatic calorimetry	116.81 J/K/mol
142.62 K, Crystal, Vacuum adiabatic calorimetry	118.58 J/K/mol
144.86 K, Glass, Vacuum adiabatic calorimetry	121.24 J/K/mol
153.97 K, Crystal, Vacuum adiabatic calorimetry	126.35 J/K/mol
158.22 K, Glass, Vacuum adiabatic calorimetry	130.67 J/K/mol
160 K, Crystal, Vacuum adiabatic calorimetry	130.74 J/K/mol
165.78 K, Crystal, Vacuum adiabatic calorimetry	135.02 J/K/mol
172.31 K, Glass, Vacuum adiabatic calorimetry	140.99 J/K/mol
177.53 K, Crystal, Vacuum adiabatic calorimetry	143.52 J/K/mol
180 K, Crystal, Vacuum adiabatic calorimetry	145.34 J/K/mol
183.8 K, Crystal, Vacuum adiabatic calorimetry	148.26 J/K/mol
184.4 K, Glass, Vacuum adiabatic calorimetry	150.13 J/K/mol
189.34 K, Crystal, Vacuum adiabatic calorimetry	152.49 J/K/mol
193.62 K, Glass, Vacuum adiabatic calorimetry	157.14 J/K/mol
195.08 K, Crystal, Vacuum adiabatic calorimetry	157.04 J/K/mol
198.88 K, Glass, Vacuum adiabatic calorimetry	161.79 J/K/mol
200 K, Crystal, Vacuum adiabatic calorimetry	160.73 J/K/mol
201.24 K, Crystal, Vacuum adiabatic calorimetry	161.76 J/K/mol
201.34 K, Glass, Vacuum adiabatic calorimetry	162.43 J/K/mol
206.16 K, Crystal, Vacuum adiabatic calorimetry	165.72 J/K/mol
212.82 K, Glass, Vacuum adiabatic calorimetry	180.93 J/K/mol
217.01 K, Crystal, Vacuum adiabatic calorimetry	174.74 J/K/mol
220 K, Crystal, Vacuum adiabatic calorimetry	177.08 J/K/mol
224.64 K, Liquid, Vacuum adiabatic calorimetry	274.63 J/K/mol
227.57 K, Crystal, Vacuum adiabatic calorimetry	183.38 J/K/mol
230.27 K, Liquid, Vacuum adiabatic calorimetry	276.92 J/K/mol
233.28 K, Liquid, Vacuum adiabatic calorimetry	278.09 J/K/mol
238.35 K, Crystal, Vacuum adiabatic calorimetry	192.45 J/K/mol
239.4 K, Liquid, Vacuum adiabatic calorimetry	280.79 J/K/mol
240 K, Crystal, Vacuum adiabatic calorimetry	193.69 J/K/mol
242.59 K, Liquid, Vacuum adiabatic calorimetry	282.18 J/K/mol
249.84 K, Crystal, Vacuum adiabatic calorimetry	202.22 J/K/mol
252.38 K, Liquid, Vacuum adiabatic calorimetry	286.68 J/K/mol
252.84 K, Liquid, Vacuum adiabatic calorimetry	287 J/K/mol
260 K, Crystal, Vacuum adiabatic calorimetry	210.67 J/K/mol
261.66 K, Crystal, Vacuum adiabatic calorimetry	212.63 J/K/mol
273.41 K, Crystal, Vacuum adiabatic calorimetry	223.08 J/K/mol
280 K, Crystal, Vacuum adiabatic calorimetry	228.03 J/K/mol
284.54 K, Liquid, Vacuum adiabatic calorimetry	303.16 J/K/mol
285.16 K, Crystal, Vacuum adiabatic calorimetry	237.05 J/K/mol
293.3 K, Liquid, Vacuum adiabatic calorimetry	308.04 J/K/mol
297.47 K, Crystal, Vacuum adiabatic calorimetry	243.76 J/K/mol
297.47 K, Liquid, Vacuum adiabatic calorimetry	310.36 J/K/mol
298.15 K, Liquid, Vacuum adiabatic calorimetry	310.74 J/K/mol
300 K, Liquid, Vacuum adiabatic calorimetry	311.8 J/K/mol
304.21 K, Liquid, Vacuum adiabatic calorimetry	314.19 J/K/mol
305.11 K, Liquid, Vacuum adiabatic calorimetry	314.67 J/K/mol
305.83 K, Liquid, Vacuum adiabatic calorimetry	315.13 J/K/mol
306.22 K, Liquid, Vacuum adiabatic calorimetry	315.36 J/K/mol
314.2 K, Liquid, Vacuum adiabatic calorimetry	320 J/K/mol
320 K, Liquid, Vacuum adiabatic calorimetry	323.37 J/K/mol
321.38 K, Liquid, Vacuum adiabatic calorimetry	324.18 J/K/mol
337.19 K, Liquid, Vacuum adiabatic calorimetry	333.49 J/K/mol
340 K, Liquid, Vacuum adiabatic calorimetry	335.17 J/K/mol
352.74 K, Liquid, Vacuum adiabatic calorimetry	342.77 J/K/mol
360 K, Liquid, Vacuum adiabatic calorimetry	347.09 J/K/mol
368.54 K, Liquid, Vacuum adiabatic calorimetry	352.16 J/K/mol
380 K, Liquid, Vacuum adiabatic calorimetry	359 J/K/mol
384.76 K, Liquid, Vacuum adiabatic calorimetry	361.84 J/K/mol
400 K, Liquid, Vacuum adiabatic calorimetry	370.85 J/K/mol
400.59 K, Liquid, Vacuum adiabatic calorimetry	371.18 J/K/mol
410 K, Liquid, Small sample (50 mg) DSC	374.57 J/K/mol and 371.91 J/K/mol and 371.07 J/K/mol
415.69 K, Liquid, Vacuum adiabatic calorimetry	380.05 J/K/mol
420 K, Liquid, Vacuum adiabatic calorimetry	382.51 J/K/mol
428.68 K, Liquid, Vacuum adiabatic calorimetry	387.41 J/K/mol
430 K, Liquid, Small sample (50 mg) DSC	384.13 J/K/mol and 385.46 J/K/mol and 382.55 J/K/mol
439.15 K, Liquid, Vacuum adiabatic calorimetry	393.4 J/K/mol
440 K, Liquid, Vacuum adiabatic calorimetry	393.64 J/K/mol
450 K, Liquid, Small sample (50 mg) DSC	395.1 J/K/mol and 393.86 J/K/mol and 402.09 J/K/mol
460 K, Liquid, Vacuum adiabatic calorimetry	401.95 J/K/mol
470 K, Liquid, Small sample (50 mg) DSC	403.25 J/K/mol and 404.83 J/K/mol and 407.16 J/K/mol
480 K, Liquid, Vacuum adiabatic calorimetry	412.21 J/K/mol
490 K, Liquid, Small sample (50 mg) DSC	411.48 J/K/mol and 416.14 J/K/mol and 419.05 J/K/mol
500 K, Liquid, Vacuum adiabatic calorimetry	422.42 J/K/mol
510 K, Liquid, Small sample (50 mg) DSC	426.2 J/K/mol and 428.36 J/K/mol and 429.11 J/K/mol
520 K, Liquid, Vacuum adiabatic calorimetry	432.63 J/K/mol
530 K, Liquid, Small sample (50 mg) DSC	435.1 J/K/mol and 439.09 J/K/mol and 438.67 J/K/mol
540 K, Liquid, Vacuum adiabatic calorimetry	442.84 J/K/mol
550 K, Liquid, Small sample (50 mg) DSC	444.66 J/K/mol and 449.81 J/K/mol and 447.07 J/K/mol
560 K, Liquid, Vacuum adiabatic calorimetry	453.01 J/K/mol
570 K, Liquid, Small sample (50 mg) DSC	452.81 J/K/mol and 460.62 J/K/mol and 460.45 J/K/mol
580 K, Liquid, Vacuum adiabatic calorimetry	463.22 J/K/mol
590 K, Liquid, Small sample (50 mg) DSC	466.28 J/K/mol and 469.1 J/K/mol and 471.1 J/K/mol
600 K, Liquid, Vacuum adiabatic calorimetry	473.43 J/K/mol
610 K, Liquid, Small sample (50 mg) DSC	480.83 J/K/mol and 476.5 J/K/mol and 479.25 J/K/mol
620 K, Liquid, Vacuum adiabatic calorimetry	483.64 J/K/mol
640 K, Liquid, Vacuum adiabatic calorimetry	493.83 J/K/mol
650 K, Liquid, Vacuum adiabatic calorimetry	498.91 J/K/mol
